Experiment: Thermogravimetric analysis (TGA) / DSC of API vaporisation from crosslinked β-cyclodextrin micro sponge complex under nitrogen purge
Assay type: physicochemical
Experimental: Differential scanning calorimetry (“DSC”) and thermogravimetric analysis (“TGA”) was performed on a Netzsch STA 409PC/PG with Infrared (“IR”) analysis of the volatiles under a purge of nitrogen gas. TGA was completed at a temperature of 250° C.
The suitability of an API for vaping from the insoluble β-cyclodextrin micro sponge, or from other crosslinked polysaccharide micro sponges, can be tested using TGA. When TGA is applied, a sample of API bound with the insoluble β-cyclodextrin micro sponge is heated at a constant rate, simulating the heat used in a vaporisation device. The sample is kept under a constant flow of nitrogen gas, simulating the inhalation of the user, drawing volatile compounds away from the heated sample.
Vaporization kinetics refer to the rate of dissociation of the API as vapour from the micro sponge, as determined by TGA.

C=C(C)[C@@H]1CCC(C)=C[C@H]1c1c(O)cc(CCCCC)cc1O [CBD, cannabidiol]
onset temperature of vaporisation of CBD (TGA) (Example I, ramp rate 10° C. min^-1): 160 °C

CCCCCc1cc(O)c(C/C=C(\C)CCC=C(C)C)c(O)c1 [CBG, cannabigerol]
onset temperature of vaporisation of API (TGA) (Examples II, IV, V, VI, ramp rate 5° C. min^-1): 190 °C

CCCCCc1cc(O)c(C/C=C(\C)CCC=C(C)C)c(O)c1C(=O)O [CBGA, cannabigerolic acid]
onset temperature of vaporisation of CBG following decarboxylation from CBGA (TGA) (Example III, ramp rate 5° C. min^-1): 190 °C
